Experimental findings from patent publication US11339161B2, “Triazolo pyridines as modulators of gamma-secretase” (Boehringer Ingelheim International GmbH, priority 2017, dated 2022) are described below.

The test system of one experiment is Aβ total. Nature of the experiment: Aβ total levels in H4 neuroglioma cells stably expressing human APP695 (MSD electrochemiluminescence). As to conditions: selectivity ratio vs. Aβtotal. In kind it is cell-based. On the procedure:
(§1) Cells were plated out to near confluency. The compounds to be tested were received as 10 mM stocks in 100% DMSO. A dilution series was initially generated in 100% DMSO and then diluted 200-fold in cell culture media such that the tested concentration range was 30 μM to 0.1 nM and the final DMSO concentration was 0.5%. The diluted compounds were incubated with the cells for 22 hours in an incubator at 37° C. and 5% CO2. Aβ42 levels were measured post-incubation from the supernatant of the cells using an Aβ42 specific electrochemiluminescence assay provided by Meso Scale Discovery (Catalog #L21CA-1). The measurement of Aβ42 levels were performed according to the manufacturer's protocol.
Aβ total levels were likewise determined using a specific electrochemiluminescence assay provided by Meso Scale Discovery (Catalog #L21ZA-1) according to the manufacturer's protocol.

The target of a further experiment is KDR (VEGFR2) (Homo sapiens, UniProt P35968). The experiment in a line: Z'-LYTE SelectScreen biochemical kinase assay KDR (VEGFR2). The source says:
(§2) Thermo Fisher Scientific SelectScreen™ Biochemical Kinase Profiling Service Z′-LYTE™ Screening Protocol and Assay Conditions Assay Theory
(§3) The […] biochemical assay employs a fluorescence-based, coupled-enzyme format and is based on the differential sensitivity of phosphorylated and non-phosphorylated peptides to proteolytic cleavage. The peptide substrate is labeled with two fluorophores—one at each end—that make up a FRET pair. In the primary reaction, the kinase transfers the gamma-phosphate of ATP to a single tyrosine, serine or threonine residue in a synthetic FRET-peptide. In the secondary reaction, a site-specific protease recognizes and cleaves non-phosphorylated FRET-peptides. Phosphorylation of FRET-peptides suppresses cleavage by the Development Reagent. Cleavage disrupts FRET between the donor (i.e., coumarin) and acceptor (i.e., fluorescein) fluorophores on the FRET-peptide, whereas uncleaved, phosphorylated FRET-peptides maintain FRET. A ratiometric method, which calculates the ratio (Emission Ratio=Coumarin emission (445 nm)/Fluorescein emission (520 nm)) of donor emission to acceptor emission after excitation of the donor fluorophore at 400 nm, is used to quantitate reaction progress, as shown in the equation below. A significant benefit of this ratiometric method for quantitating reaction progress is the elimination of well-to-well variations in FRET-peptide concentration and signal intensities. As a result, the assay yields very high Z′-factor values (>0.7) at a low percent phosphorylation. Both cleaved and uncleaved FRET-peptides contribute to the fluorescence signals and therefore to the Emission Ratio. The extent of phosphorylation of the FRET-peptide can be calculated from the Emission Ratio. The Emission Ratio will remain low if the FRET-peptide is phosphorylated (i.e., no kinase inhibition) and will be high if the FRET-peptide is non-phosphorylated (i.e., kinase inhibition).
(§4) The Test Compounds are screened in 1% DMSO (final) in the well. For 10 point titrations, 3-fold serial dilutions are conducted from the starting concentration of the customer's choosing.
(§5) All Peptide/Kinase Mixtures are diluted to a 2× working concentration in the appropriate Kinase Buffer (see section Kinase Specific Assay Conditions for a complete description).
(§6) All ATP Solutions are diluted to a 4× working concentration in Kinase Buffer (50 mM HEPES pH 7.5, 0.01% BRIJ-35, 10 mM MgCl2, 1 mM EGTA). ATP Km apparent is previously determined using a Z″-LYTE assay.
(§7) The Development Reagent is diluted in Development Buffer (see section Kinase-Specific Assay Conditions—Direct and Cascade for a complete description).
(§8) Bar-coded Corning, low volume NBS, black 384-well plate (Corning Cat. #4514) • 1. 100 nL—100× Test Compound in 100% DMSO • 2. 2.4 μL—Kinase buffer • 3. 5 μL—2× Peptide/Kinase Mixture • 4. 2.5 μL—4×ATP Solution • 5. 30—second plate shake • 6. 60—minute Kinase Reaction incubation at room temperature • 7. 5 μL—Development Reagent Solution • 8. 30—second plate shake • 9. 60—minute Development Reaction incubation at room temperature • 10. Read on fluorescence plate reader and analyze the data Z′-LYTE Assay Controls
(§9) SelectScreen Kinase Profiling Service uses XLfit from IDBS. The dose response curve is curve fit to model number 205 (sigmoidal dose-response model).
The 2×KDR (VEGFR2)/Tyr 01 mixture is prepared in 50 mM HEPES pH 7.5, 0.01% BRIJ-35, 10 mM MgCl2, 1 mM EGTA. The final 10 μL Kinase Reaction consists of 1-30 ng KDR (VEGFR2) and 2 μM Tyr 01 in 50 mM HEPES pH 7.5, 0.01% BRIJ-35, 10 mM MgCl2, 1 mM EGTA. After the 1 hour Kinase Reaction incubation, 5 μL of a 1:256 dilution of Development Reagent B is added.

The subject of the next experiment is Aβ42 production. The experiment in a line: Inhibition of Aβ42 production in H4 neuroglioma cells stably expressing human APP695 (MSD electrochemiluminescence). In kind it is cell-based. How it is done: as §1
In the next experiment the target is CDK5/p35 (Homo sapiens, UniProt Q00535). The experiment in a line: Z'-LYTE SelectScreen biochemical kinase assay CDK5/p35.
CDK5/p35, sequence (Q00535 whole entry): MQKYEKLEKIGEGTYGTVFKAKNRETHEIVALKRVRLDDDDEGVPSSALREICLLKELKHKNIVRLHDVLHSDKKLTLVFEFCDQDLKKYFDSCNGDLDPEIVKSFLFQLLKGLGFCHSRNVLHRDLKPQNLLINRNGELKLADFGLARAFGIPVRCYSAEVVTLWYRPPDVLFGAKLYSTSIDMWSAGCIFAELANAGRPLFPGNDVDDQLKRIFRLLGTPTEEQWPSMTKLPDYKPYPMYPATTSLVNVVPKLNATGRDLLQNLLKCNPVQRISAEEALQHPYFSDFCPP
CDK5/p35, sequence (Q15078 whole entry partner): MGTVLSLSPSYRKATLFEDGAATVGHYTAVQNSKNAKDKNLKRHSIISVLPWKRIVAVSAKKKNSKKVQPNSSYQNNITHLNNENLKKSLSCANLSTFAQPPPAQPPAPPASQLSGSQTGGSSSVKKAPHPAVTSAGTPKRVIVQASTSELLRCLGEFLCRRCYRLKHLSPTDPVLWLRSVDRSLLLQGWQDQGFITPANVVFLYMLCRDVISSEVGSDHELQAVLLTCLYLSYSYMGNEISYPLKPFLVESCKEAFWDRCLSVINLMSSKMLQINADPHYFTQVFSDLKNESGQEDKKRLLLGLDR
Description: as §2, §3, §4, §5, §6, §7, §8, §9
The 2×CDK5/p35/Ser/Thr 12 mixture is prepared in 50 mM HEPES pH 7.5, 0.01% BRIJ-35, 10 mM MgCl2, 1 mM EGTA. The final 10 μL Kinase Reaction consists of 0.14-1.3 ng CDK5/p35 and 2 μM Ser/Thr 12 in 50 mM HEPES pH 7.5, 0.01% BRIJ-35, 10 mM MgCl2, 1 mM EGTA. After the 1 hour Kinase Reaction incubation, 5 μL of a 1:4096 dilution of Development Reagent A is added.

[1] abbreviates: 10 μmolar compound concentration, ATP at Km app, read-out: KDR (VEGFR2) inhibition.
Setting [2] is: read-out: % Inhibition mean KDR (VEGFR2).
[3] abbreviates: H4 neuroglioma cells expressing human APP695, 22 hours incubation, Table 4a.
The mark [4] stands for this setting: 10 μmolar compound concentration, ATP at Km app, read-out: CDK5/p35 inhibition.
The mark [5] stands for this setting: read-out: % Inhibition mean CDK5/p35.

Like-named read-outs stand apart in the source and are kept apart here. Some results are limits rather than exact numbers.

KDR (VEGFR2), sequence (P35968 20-1356): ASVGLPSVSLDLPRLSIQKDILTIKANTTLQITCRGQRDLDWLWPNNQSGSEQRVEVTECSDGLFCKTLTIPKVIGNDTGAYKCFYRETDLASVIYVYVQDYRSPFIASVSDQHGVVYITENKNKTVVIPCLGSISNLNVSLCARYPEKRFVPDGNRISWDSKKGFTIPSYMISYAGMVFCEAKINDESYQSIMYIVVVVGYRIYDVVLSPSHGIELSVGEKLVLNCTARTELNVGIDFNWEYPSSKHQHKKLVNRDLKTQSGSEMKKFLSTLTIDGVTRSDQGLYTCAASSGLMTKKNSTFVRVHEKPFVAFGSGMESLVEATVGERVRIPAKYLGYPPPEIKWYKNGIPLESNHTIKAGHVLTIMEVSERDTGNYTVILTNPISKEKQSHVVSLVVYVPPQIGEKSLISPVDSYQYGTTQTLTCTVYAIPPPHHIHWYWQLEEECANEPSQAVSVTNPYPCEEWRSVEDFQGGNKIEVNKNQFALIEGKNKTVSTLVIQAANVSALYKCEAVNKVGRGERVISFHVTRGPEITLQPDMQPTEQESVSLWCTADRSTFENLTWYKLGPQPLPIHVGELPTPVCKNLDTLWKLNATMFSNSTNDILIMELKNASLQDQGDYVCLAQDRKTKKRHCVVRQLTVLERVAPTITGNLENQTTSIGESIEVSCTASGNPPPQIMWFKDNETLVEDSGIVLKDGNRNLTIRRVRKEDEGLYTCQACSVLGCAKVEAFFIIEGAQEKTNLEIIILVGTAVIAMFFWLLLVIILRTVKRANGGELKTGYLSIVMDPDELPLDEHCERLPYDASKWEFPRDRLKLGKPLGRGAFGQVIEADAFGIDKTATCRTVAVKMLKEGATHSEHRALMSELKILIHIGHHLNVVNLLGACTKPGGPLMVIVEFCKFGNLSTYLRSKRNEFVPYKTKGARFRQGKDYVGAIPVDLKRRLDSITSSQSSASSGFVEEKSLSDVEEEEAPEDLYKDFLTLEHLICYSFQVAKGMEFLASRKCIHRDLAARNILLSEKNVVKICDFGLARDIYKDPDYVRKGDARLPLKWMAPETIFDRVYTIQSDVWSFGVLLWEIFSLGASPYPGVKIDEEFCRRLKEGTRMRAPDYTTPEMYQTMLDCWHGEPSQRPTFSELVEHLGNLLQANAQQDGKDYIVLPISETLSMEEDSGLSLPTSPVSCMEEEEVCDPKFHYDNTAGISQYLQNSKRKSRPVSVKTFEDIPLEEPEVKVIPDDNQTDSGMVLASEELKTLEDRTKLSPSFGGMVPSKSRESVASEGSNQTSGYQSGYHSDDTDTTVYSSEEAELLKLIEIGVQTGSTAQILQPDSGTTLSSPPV

`Cc1cc(F)ccc1-c1cccn2nc(NC3CCc4c(cnn4C)C3)nc12` (stereo not shown) [Example 10, [8-(4-fluoro-2-methyl-phenyl)-[1,2,4]triazolo[1,5-a]pyridine-2-yl]-(1-methyl-4,5,6,7-tetrahydro-1H-indazol-5-yl)-amine]: in the experiment with Aβ total (Table 4a), the “Ratio AβTotal IC50/Aβ42 IC50” value came out at 27. Further, the inhibition at 10 µM at KDR (VEGFR2) (setting [1]) was under 40%; at KDR (VEGFR2) (setting [2]), -2%; at CDK5/p35 (setting [4]) it was 40 to 80%; on CDK5/p35 (setting [5]) it was 44%. The IC50 with Aβ42 production (setting [3]) is 380 nM.
Consider `CCn1ncc2c1CC[C@@H](Nc1nc3c(-c4ccc(F)c(Cl)c4)cccn3n1)C2` [Example R-61, (R)-[8-(3-Chloro-4-fluoro-phenyl)-[1,2,4]triazolo[1,5-a]pyridine-2-yl]-(1-ethyl-4,5,6,7-tetrahydro-1H-indazol-5-yl)-amine], for which the “Ratio AβTotal IC50/Aβ42 IC50” value in the experiment on Aβ total (Table 4a) came out at 1098. The inhibition at 10 µM is under 40% on KDR (VEGFR2) (setting [1]), 2% on KDR (VEGFR2) (setting [2]), under 40% at CDK5/p35 (setting [4]) and 25% at CDK5/p35 (setting [5]). In the experiment with Aβ42 production (setting [3]), the IC50 is 9 nM.
As to `CCn1ncc2c1CCC(Nc1nc3c(-c4cnccc4OC)cccn3n1)C2` (stereo not shown) [Example 68, (1-Ethyl-4,5,6,7-tetrahydro-1H-indazol-5-yl)-[8-(4-methoxy-pyridin-3-yl)-[1,2,4]triazolo[1,5-a]pyridine-2-yl]-amine], the “Ratio AβTotal IC50/Aβ42 IC50” value in the experiment with Aβ total (Table 4a) is listed as 241. The inhibition at 10 µM on KDR (VEGFR2) (setting [1]) is under 40%; at KDR (VEGFR2) (setting [2]), 18%; at CDK5/p35 (setting [4]), 40 to 80%; at CDK5/p35 (setting [5]), 44%. Half-maximal inhibition in the experiment on Aβ42 production (setting [3]) (IC50) was put at 120 nM.
On to `Fc1cccc(-c2cccn3nc(Nc4ccc5[nH]cnc5c4)nc23)c1` [Cpd. 293 in WO09155551, reference compound], for which the “Ratio AβTotal IC50/Aβ42 IC50” value with Aβ total (prior art compounds, Table 4b) worked out at 1. In addition, the inhibition at 10 µM at KDR (VEGFR2) (setting [1]) is over 80%; at KDR (VEGFR2) (read-out: % Inhibition mean), 98%; on CDK5/p35 (setting [4]), over 80%; on CDK5/p35 (read-out: % Inhibition mean), 90%. The molecule further came in with a 50% inhibitory concentration (IC50) in the experiment on Aβ42 production (Homo sapiens, H4 neuroglioma cells, same assay as table 4a, prior art compounds, Table 4b) of 7000 nM. The “modulation of γ-secretase (in words)” value in the experiment on Aβ42 production (tables 4a/4b) is given as “do not show any modulation”.
As to `CCn1ncc2c1CCC(Nc1nc3c(-c4cccnc4)cccn3n1)C2` (stereo not shown) [Example 63, (1-Ethyl-4,5,6,7-tetrahydro-1H-indazol-5-yl)-(8-pyridin-3-yl-[1,2,4]triazolo[1,5-a]pyridine-2-yl)-amine], the “Ratio AβTotal IC50/Aβ42 IC50” value with Aβ total (Table 4a) is recorded as 85. Moreover, the inhibition at 10 µM on KDR (VEGFR2) (setting [1]) was under 40%; at KDR (VEGFR2) (setting [2]), 8%; at CDK5/p35 (setting [4]) it was 40 to 80%; at CDK5/p35 (setting [5]), 47%. The midpoint of inhibition with Aβ42 production (setting [3]), the IC50, lay at 350 nM.
In the case of `CCn1ncc2c1CCC(Nc1nc3c(-c4ccccc4)cccn3n1)C2` (stereo not shown) [Example 57, (1-Ethyl-4,5,6,7-tetrahydro-1H-indazol-5-yl)-(8-phenyl-[1,2,4]triazolo[1,5-a]pyridine-2-yl)-amine], the “Ratio AβTotal IC50/Aβ42 IC50” value in the experiment on Aβ total (Table 4a) amounted to 104. For the same molecule, the inhibition at 10 µM at KDR (VEGFR2) (setting [1]) was under 40%; on KDR (VEGFR2) (setting [2]), 18%; on CDK5/p35 (setting [4]), under 40%; at CDK5/p35 (setting [5]) it was 26%. Also, the IC50 in the experiment with Aβ42 production (setting [3]) turned out to be 70 nM.
Take `CCCCCn1ncc2c1CCC(Nc1nc3c(-c4ccc(F)cc4C)cccn3n1)C2` (stereo not shown) [Example 47, [8-(4-fluoro-2-methyl-phenyl)-[1,2,4]triazolo[1,5-a]pyridine-2-yl]-(1-pentyl-4,5,6,7-tetrahydro-1H-indazol-5-yl)-amine]: in the experiment with Aβ total (Table 4a), the “Ratio AβTotal IC50/Aβ42 IC50” value came out at 1. For the same molecule, the inhibition at 10 µM at KDR (VEGFR2) (setting [1]) was under 40%; on KDR (VEGFR2) (setting [2]), 6%; on CDK5/p35 (setting [4]), under 40%; on CDK5/p35 (setting [5]), 13%. In addition, the half-maximal inhibitory concentration (IC50) in the experiment on Aβ42 production (setting [3]) is over 30000 nM.
